Source: the NIST ThermoML archive (doi:10.1016/j.jct.2019.01.028)

Key:
[1] = xn = mol fraction of the nth substance listed; conditions: transient hot wire, x1 = 0.5
[2] = transient hot wire

CC(F)(F)F [1,1,1-trifluoroethane] + C=C(F)C(F)(F)F
[1]
Conditions | thermal conductivity [W/m/K]
265.44 K, 1220 kPa, Liquid | 0.0777
284.11 K, 2050 kPa, Liquid | 0.0715
285.09 K, 1060 kPa, Liquid | 0.0696
307.25 K, 2030 kPa, Liquid | 0.0625
307.34 K, 3050 kPa, Liquid | 0.0644
324.39 K, 3040 kPa, Liquid | 0.0585
334.34 K, 1080 kPa, Gas | 0.01836
354.13 K, 1170 kPa, Gas | 0.02059
354.52 K, 1730 kPa, Gas | 0.02034
373.86 K, 2750 kPa, Gas | 0.02379
374.86 K, 1900 kPa, Gas | 0.02277
393.8 K, 3090 kPa, Gas | 0.02622

[Ar] [argon]
[2], Gas
Conditions | thermal conductivity [W/m/K]
311.92 K, 20370 kPa | 0.02811
312.12 K, 24160 kPa | 0.03024
312.12 K, 31080 kPa | 0.0342
312.18 K, 27390 kPa | 0.03235
312.2 K, 25850 kPa | 0.03134
312.35 K, 27380 kPa | 0.0324
312.59 K, 17170 kPa | 0.02649
312.61 K, 13790 kPa | 0.02465
312.73 K, 10320 kPa | 0.02285

FC(F)C(F)(F)F [pentafluoroethane] + C=C(F)C(F)(F)F
[1]
Conditions | thermal conductivity [W/m/K]
259.84 K, 1110 kPa, Liquid | 0.0717
284.9 K, 1150 kPa, Liquid | 0.0674
285.15 K, 1880 kPa, Liquid | 0.0686
304.07 K, 2060 kPa, Liquid | 0.0644
305.21 K, 3030 kPa, Liquid | 0.0595
324.75 K, 3030 kPa, Liquid | 0.0529
334.55 K, 1340 kPa, Gas | 0.01759
354.3 K, 1450 kPa, Gas | 0.01925
354.63 K, 1840 kPa, Gas | 0.02057
374.24 K, 2810 kPa, Gas | 0.02329
374.46 K, 2040 kPa, Gas | 0.02202
394.23 K, 3100 kPa, Gas | 0.02512

FC(F)C(F)(F)F [pentafluoroethane] + CC(F)F
[1]
Conditions | thermal conductivity [W/m/K]
264.9 K, 1000 kPa, Liquid | 0.0845
273.97 K, 2140 kPa, Liquid | 0.0856
284.7 K, 1000 kPa, Liquid | 0.0799
294.68 K, 3030 kPa, Liquid | 0.0789
294.83 K, 2010 kPa, Liquid | 0.0774
314.1 K, 3080 kPa, Liquid | 0.0646
335.9 K, 1110 kPa, Gas | 0.0178
353.81 K, 1710 kPa, Gas | 0.01953
353.92 K, 1220 kPa, Gas | 0.01934
374.25 K, 1920 kPa, Gas | 0.0231
374.33 K, 2760 kPa, Gas | 0.0237
393.94 K, 3110 kPa, Gas | 0.02557

Cc1ccccc1 [toluene]
[2], 100 kPa, Liquid
Conditions | thermal conductivity [W/m/K]
272.64 K | 0.1372
273.45 K | 0.1366
295.01 K | 0.1308
295.07 K | 0.1307
316.82 K | 0.1253
318.84 K | 0.1243
321.21 K | 0.1237
335.27 K | 0.12
337.36 K | 0.1192
347 K | 0.1175
